Experimental data as given in US12569484B2, “Use of phosphodiesterase 5 inhibitor in preparation of medicament for resisting fibrotic diseases” (SHENZHEN HANHUI PHARMACEUTICAL TECHNOLOGY CO., LTD., priority 2019, dated 2026).

System: idiopathic pulmonary fibrosis model rats
Assay: Bleomycin-induced idiopathic pulmonary fibrosis model
Format: in vivo, male SD rats
Conditions: IPF rats; for degree of pulmonary fibrosis in the left lung (Ashcroft score): oral once a day 14 days
Description: 48 male SD rats were randomly divided into 6 groups according to their body weights, with 8 rats in each group: a sham operation group (Sham), a model group, a nintedanib-50 mg/kg group (BIBF-50 mg/kg), a tadalafil-5 mg/kg group, a tadalafil-20 mg/kg group, and a sildenafil-20 mg/kg group. All the operations involved in this experiment were implemented under the guiding principle of KCI animal experiment operation SOP. After the animals were purchased, they were fed adaptively for 3-7 days before modeling. After weighing, the animals were anesthetized with isoflurane inhalation. After it was confirmed that the animals were anesthetized, the neck was sterilized, the skin of the neck was cut open, a main trachea was exposed by blunt dissection of muscle, a small incision was made between tracheal rings, a PE-20 tube was inserted into a left main bronchus, bleomycin (dosage: 3 mg/kg, volume: 1.0 ml/kg) was directly injected, and the trachea and skin were sutured. After the operation was completed, the animals were put in an electric blanket at 37° C. to keep them warm until they fully woke up, and the animals were returned into feeding cages for normal feeding after it was confirmed that they could eat and drink freely. • (i) sham operation group and model group: the mice were given normal saline by intragastric administration according to their body weights at a dosage of 1 ml·100 g^-1·d^-1; • (ii) nintedanib-50 mg/kg group (BIBF-50 mg/kg): BIBF was formulated into a 10 mg/ml solution with 0.5% sodium carboxymethyl cellulose, and administrated intragastrically at a dosage of 50 mg·kg^-1·d^-1; • (iii) tadalafil-5 mg/kg group: tadalafil was diluted into a 1 mg/ml solution with 0.5% sodium carboxymethylcellulose, and administrated intragastrically at a dosage of 5 mg·kg^-1·d^-1; • (iv) tadalafil-20 mg/kg group: tadalafil was diluted into a 4 mg/ml solution with 0.5% sodium carboxymethylcellulose, and administrated intragastrically at a dosage of 20 mg·kg^-1·d^-1; • (v) sildenafil-20 mg/kg group: sildenafil was diluted into a 4 mg/ml solution with 0.5% sodium carboxymethylcellulose, and administrated intragastrically at a dosage of 20 mg·kg^-1·d^-1, and • the rats in each group were administrated intragastrically once a day for 14 days in total on the day of modeling. • (1) according to an interspecific dosage conversion method currently adopted by FDA, USA, the conversion coefficient of rats and human was 0.162. Therefore, according to the dosage and time of intragastric administration of tadalafil in the mice in this example, it was inferred that the oral dosage of human was 0.81-3.24 mg·kg^-1·d^-1, and the administration time was 14 days; and according to the dosage and time of intragastric administration of sildenafil in the mice in this example, it was inferred that the oral dosage of human was 3.24 mg·kg^-1·d^-1, and the administration time was 14 days. • (2) according to dosage conversion among different routes of administration in pharmacological experimental methodology, a dosage ratio of intramuscular injection and intraperitoneal injection to oral administration was about 0.3-0.4, so it was inferred that the injection dosage of tadalafil in human was 0.243-1.296 ml·kg^-1·d^-1, and the administration time was 14 days (medicament concentration: 1 mg/ml); and the injection dosage of sildenafil in human was 0.972-1.296 ml·kg^-1·d^-1, and the administration time was 14 days (medicament concentration: 1 mg/ml). 2.4 Experimental Indexes and Determining Methods 2.4.1 Weight and Volume of Left Lung of IPF Rats After 14 days of continuous administration, all animals were euthanized by intraperitoneal injection of a pentobarbital sodium anesthetic (100 mg/kg) to the animals in each group according to a KCI standard operating procedure for animal euthanasia. All animals were perfused with low-temperature PBS systematically, and then perfused systematically with formalin for fixation. […]

[1] = 14 days intragastric, BIBF 50 mg/kg, tadalafil 5 and 20 mg/kg, sildenafil 20 mg/kg
[2] = BIBF 50 mg/kg, tadalafil 5 and 20 mg/kg, sildenafil 20 mg/kg, vs model group, p<0.05

Row | Structure (SMILES) | alveolar tissue structure in the pulmonary fibrosis lesion of the left lung (HE staining) [1] | alveolar tissue structure in the pulmonary fibrosis lesion of the left lung (Masson Trichrom staining) [1] | pulmonary fibrosis lesion and lesion range in the left lung (H&E and Masson Trichrom staining) (14 days intragastric, BIBF 50 mg/kg, tadalafil 5 and 20 mg/kg, sildenafil 20 mg/kg, vs model group) | scores of injury degrees of bronchioles and pulmonary arterioles in the center and margin of the pulmonary fibrosis lesion (14 days intragastric, BIBF 50 mg/kg, tadalafil 5 and 20 mg/kg, sildenafil 20 mg/kg, vs model group, p<0.05) | percentage of the pulmonary fibrosis degree (Ashcroft score of 3 as a boundary) (14 days intragastric, vs model group, p<0.05) | degree of pulmonary fibrosis in the left lung (Ashcroft score) [2]
1 | COC(=O)c1ccc2c(c1)NC(=O)/C2=C(\Nc1ccc(N(C)C(=O)CN2CCN(C)CC2)cc1)c1ccccc1 [BIBF, nintedanib] | some alveolar structures in the fibrosis lesion were still damaged | some alveolar structures disappeared in the fibrosis lesion | no significant difference | significantly decreased | significantly decreased | significantly improved
2 | CCCc1nn(C)c2c(=O)[nH]c(-c3cc(S(=O)(=O)N4CCN(C)CC4)ccc3OCC)nc12 [sildenafil] | the alveolar structure in the fibrosis lesion was preserved | most of the alveolar structures in the fibrosis lesion were preserved |  |  |  | significantly inhibit
